From patent publication US9221809B2 (MERCK SHARP & DOHME CORP., priority 2011, dated 2015)
pIC50: −log10 of the molar value. Structures can show the parent of a compound that is named as a salt.

These compounds were tested against IRAK4 (Homo sapiens (Human), UniProt Q9NWZ3) (assay: IRAK4 kinase activity, IMAP fluorescence polarization assay). Conditions: 100 μM ATP, 0.5 nM GST tagged IRAK4; read-out: IRAK4 IC50.
Format: biochemical
Procedure: The kinase activity of IRAK4 is determined by its ability to catalyze the phosphorylation of a fluorescent polypeptide substrate. The extent of phosphorylation is measured using IMAP technology (Molecular Devices) where the phosphorylated fluorescent substrate binds to the large M(III)-based nanoparticles which reduces the rotational speed of the substrate and thus increases its fluorescent polarization (FP).
Assay Procedure: A 20 μl reaction mixture contains 10 mM TriHCl, pH 7.2, 0.5 nM GST tagged IRAK4 (SignalChem), 100 nM fluorescent peptide substrate (RP7030, Molecular Devices), 100 μM ATP, 1 mM DTT, 1 mM MgCl2, and 0.01% Tween 20. The reaction is initiated by the addition of ATP. After incubation for 30 minutes at 25° C., 60 μl of Progressive IMAP Reagent (Molecular Devices) is added to stop the reaction. Change in RP7030's FP is determined by a FP reader (Analyst HT, LJL BioSystems)

Sequence of IRAK4 (Q9NWZ3 whole entry): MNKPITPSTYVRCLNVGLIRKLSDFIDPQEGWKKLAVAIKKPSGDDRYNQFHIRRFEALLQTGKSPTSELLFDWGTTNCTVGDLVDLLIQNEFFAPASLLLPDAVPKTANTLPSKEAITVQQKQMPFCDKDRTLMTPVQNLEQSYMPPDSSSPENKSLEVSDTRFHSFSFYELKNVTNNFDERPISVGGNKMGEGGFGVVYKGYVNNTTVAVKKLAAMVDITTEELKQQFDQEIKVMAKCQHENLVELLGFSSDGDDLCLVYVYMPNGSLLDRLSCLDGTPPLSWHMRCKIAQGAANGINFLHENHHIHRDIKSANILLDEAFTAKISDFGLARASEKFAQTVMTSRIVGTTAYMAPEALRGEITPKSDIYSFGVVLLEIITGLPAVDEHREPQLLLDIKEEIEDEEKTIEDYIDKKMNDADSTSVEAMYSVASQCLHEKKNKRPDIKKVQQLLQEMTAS

pIC50	Compound
7.04	CC1CCC(Nc2nc(N3CCOCC3)[nH]c(=O)c2-c2ccc3ccccc3n2)CN1 (stereo not shown) [Example 107, 6-((6-methylpiperidin-3-yl)amino)-2-morpholino-5-(quinolin-2-yl)pyrimidin-4(3H)-one.HCl]
6.05	O=c1[nH]c(NC2COC2)nc(N[C@@H]2C[C@H](CO)[C@@H](O)[C@H]2O)c1-c1nc2ccccc2s1 [Example 11, 5-(Benzo[d]thiazol-2-yl)-6-((1R,2S,3R,4R)-2,3-dihydroxy-4-(hydroxymethyl)cyclopentylamino)-2-(oxetan-3-ylamino)pyrimidin-4(3H)-one.HCl]
6.94	C[C@@H]1CC[C@@H](Nc2nc(N3CCOCC3)[nH]c(=O)c2-c2nc3ccccc3s2)CN1 (racemic) [Example 124, 5-(benzo[d]thiazol-2-yl)-6((6-methylpiperidin-3-yl)amino)-2-morpholinopyrimidin-4(3H)-one.HCl]
6.16	Nc1nc(N[C@@H]2C[C@H](CO)[C@@H](O)[C@H]2O)c(-c2nc3ccccc3s2)c(=O)[nH]1 [Example 2, 2-Amino-5-(benzo[d]thiazol-2-yl)-6-((1R,2S,3R,4R)-2,3-dihydroxy-4-(hydroxymethyl)cyclopentylamino)pyrimidin-4(3H)-one.HCl]
8.24	Cc1nccc2sc(-c3c(N[C@@H]4CCCNC4)nc(N4CCOCC4)[nH]c3=O)nc12 [Example 99, (R)-5-(4-Methylthiazolo[4,5-c]pyridin-2-yl)-2-morpholino-6-(piperidin-3-ylamino)pyrimidin-4(3H)-one.HCl]
6.48	O=c1[nH]c(N2CCOCC2)nc(N[C@@H]2CCCNC2)c1-c1nc2cc(C3CC3)ccc2s1 [Example 346, 5-(5-cyclopropyl-1,3-benzothiazol-2-yl)-2-(morpholin-4-yl)-6-[[(3R)-piperidin-3-yl]amino]-3,4-dihydropyrimidin-4-one trifluoroacetic acid]
6.74	O=c1[nH]c(N2CCOCC2)nc(N[C@@H]2CCCNC2)c1-c1nc2cccc(Cl)c2s1 [Example 339, (R)-5-(7-chlorobenzo[d]thiazol-2-yl)-2-morpholino-6-(piperidin-3-ylamino)pyrimidin-4(3H)-one]
6.59	NC1CCCC(Nc2nc(N3CCOCC3)[nH]c(=O)c2-c2nc3ccccc3s2)C1 (stereo not shown) [Example 90, 6-(3-Aminocyclohexylamino)-5-(benzo[d]thiazol-2-yl)-2-morpholinopyrimidin-4(3H)-one.HCl]

Same assay, conditions: 100 μM ATP; read-out: IC50

pIC50	Compound
7.13	NC(=O)C1CCN(c2nc(N[C@@H]3CCCNC3)c(-c3nc4ccccc4s3)c(=O)[nH]2)CC1 [Example 318, 1-[5-(1,3-benzothiazol-2-yl)-6-oxo-4-[[(3R)-piperidin-3-yl]amino]-1,6-dihydropyrimidin-2-yl]piperidine-4-carboxamide hydrochloride]
7.26	O=c1[nH]c(N2CCOCC2)nc(NCCN2CCNCC2)c1-c1nc2ccccc2s1 [Example 256, 5-(1,3-benzothiazol-2-yl)-2-(morpholin-4-yl)-6-[[2-(piperazin-1-yl)ethyl]amino]-3,4-dihydropyrimidin-4-one]
5.70	O=c1[nH]c(N2CCC2)nc(N[C@@H]2CCCNC2)c1-c1nc2ccccc2s1 [Example 288, (R)-2-(azetidin-1-yl)-5-(benzo[d]thiazol-2-yl)-6-(piperidin-3-ylamino)pyrimidin-4(3H)-one]
7.37	O=c1[nH]c(N2CCOC(CO)C2)nc(N[C@@H]2CCCNC2)c1-c1nc2ccccc2s1 (stereo partly drawn) [Example 285, 5-(1,3-benzothiazol-2-yl)-2-[2-(hydroxymethyl)morpholin-4-yl]-6-[[(3R)-piperidin-3-yl]amino]-3,4-dihydropyrimidin-4-one]
6.74	O=c1[nH]c(N2CCOCC2)nc(NCCc2ncc[nH]2)c1-c1nc2ccccc2s1 [Example 264, 6-(2-(1H-imidazol-2-yl)ethylamino)-5-(benzo[d]thiazol-2-yl)-2-morpholino-pyrimidin-4(3H)-one]
5.23	O=C1C[C@@H](Nc2nc(N[C@@H]3CCCNC3)c(-c3nc4ccccc4s3)c(=O)[nH]2)Cc2ccccc2N1 [Example 303, (S)-4-(5-(benzo[d]thiazol-2-yl)-6-oxo-4-((R)-piperidin-3-ylamino)-1,6-dihydropyrimidin-2-ylamino)-4,5-dihydro-1H-benzo[b]azepin-2(3H)-one]
6.11	O=c1[nH]c(N2CCOCC2)nc(NCCN2CCC(O)CC2)c1-c1nc2ccccc2s1 [Example 258, 5-(1,3-benzothiazol-2-yl)-6-[[2-(4-hydroxypiperidin-1-yl)ethyl]amino]-2-(morpholino-4-yl)-3,4-dihydropyrimidin-4-one]
6.96	CNC(=O)C1CN(c2nc(N[C@@H]3CCCNC3)c(-c3nc4ccccc4s3)c(=O)[nH]2)CCO1 (stereo partly drawn) [Example 287, 4-(5-(benzo[d]thiazol-2-yl)-6-oxo-4-((R)-piperidin-3-ylamino)-1,6-dihydropyrimidin-2-yl)-N-methylmorpholine-2-carboxamide]
6.17	O=c1[nH]c(N2CCOCC2)nc(NCCNCCO)c1-c1ccc2ccccc2n1 [Example 273, 6-([2-[(2-hydroxyethyl)amino]ethyl]amino)-2-(morpholin-4-yl)-5-(quinolin-2-yl)-3,4-dihydropyrimidin-4-one]

Same assay, conditions: 100 μM ATP; read-out: IRAK4 IC50

pIC50	Compound
7.57	O=c1[nH]c(N2CCN(c3nnc(C4CC4)o3)CC2)nc(N[C@@H]2CCCNC2)c1-c1nc2ccccc2s1 [Example 162, (R)-5-(benzo[d]thiazol-2-yl)-2-(4-(5-cyclopropyl-1,3,4-oxadiazol-2-yl)piperazin-1-yl)-6-(piperidin-3-ylamino)pyrimidin-4(3H)-one]
6.85	O=c1[nH]c(N2CCOCC2)nc(N[C@@H]2CCCNC2)c1-c1nc(-c2cccc(C(F)(F)F)c2)cs1 [Example 200]
7.24	O=c1[nH]c(N2CCN(c3ccc(Cl)c(Cl)c3)CC2)nc(N[C@@H]2CCCNC2)c1-c1nc2ccccc2s1 [Example 153, (R)-5-(benzo[d]thiazol-2-yl)-2-(4-(3,4-dichlorophenyl)piperazin-1-yl)-6-(piperidin-3-ylamino)pyrimidin-4(3H)-one]
7.70	O=c1[nH]c(N2CCN(c3nncs3)CC2)nc(N[C@@H]2CCCNC2)c1-c1nc2ccccc2s1 [Example 163, (R)-2-(4-(1,3,4-thiadiazol-2-yl)piperazin-1-yl)-5-(benzo[d]thiazol-2-yl)-6-(piperidin-3-ylamino)pyrimidin-4(3H)-one]
8.00	COc1cccc(N2CCN(c3nc(N[C@@H]4CCCNC4)c(-c4nc5ccccc5s4)c(=O)[nH]3)CC2)n1 [Example 143, (R)-5-(benzo[d]thiazol-2-yl)-2-(4-(6-methoxypyridin-2-yl)piperazin-1-yl)-6-(piperidin-3-ylamino)pyrimidin-4(3H)-one]
7.40	O=c1[nH]c(N2CCOCC2)nc(N[C@@H]2CCCNC2)c1-c1nc(-c2cccc(F)c2)cs1 [Example 204]
8.10	Cc1cnccc1N1CCN(c2nc(N[C@@H]3CCCNC3)c(-c3nc4ccccc4s3)c(=O)[nH]2)CC1 [Example 158, (R)-5-(benzo[d]thiazol-2-yl)-2-(4-(3-methylpyridin-4-yl)piperazin-1-yl)-6-(piperidin-3-ylamino)pyrimidin-4(3H)-one]
7.77	O=c1[nH]c(N2CCN(c3ncc(C(F)(F)F)cc3Cl)CC2)nc(N[C@@H]2CCCNC2)c1-c1nc2ccccc2s1 [Example 133, (R)-5-(benzo[d]thiazol-2-yl)-2-(4-(3-chloro-5-(trifluoromethyl)pyridin-2-yl)piperazin-1-yl)-6-(piperidin-3-ylamino)pyrimidin-4(3H)-one]
7.57	O=c1[nH]c(N2CCN(c3ccccc3Cl)CC2)nc(N[C@@H]2CCCNC2)c1-c1nc2ccccc2s1 [Example 151, (R)-5-(benzo[d]thiazol-2-yl)-2-(4-(2-chlorophenyl)piperazin-1-yl)-6-(piperidin-3-ylamino)pyrimidin-4(3H)-one]
7.07	O=c1[nH]c(N2CCC[C@H]2CF)nc(N[C@@H]2CCCNC2)c1-c1ccc2ccccc2n1 [Example 183, 2-((S)-2-(fluoromethyl)pyrrolidin-1-yl)-6-((R)-piperidin-3-ylamino)-5-(quinolin-2-yl)pyrimidin-4(3H)-one]
7.35	O=c1[nH]c(N2CCN(c3ccccc3C(F)(F)F)CC2)nc(N[C@@H]2CCCNC2)c1-c1nc2ccccc2s1 [Example 148, (R)-5-(benzo[d]thiazol-2-yl)-6-(piperidin-3-ylamino)-2-(4-(2-(trifluoromethyl)phenyl)piperazin-1-yl)pyrimidin-4(3H)-one]
7.18	Cc1cc(C2CCN(c3nc(N[C@@H]4CCCNC4)c(-c4ccc5ccccc5n4)c(=O)[nH]3)CC2)[nH]n1 [Example 192, (R)-2-(4-(3-methyl-1H-pyrazol-5-yl)piperidin-1-yl)-6-(piperidin-3-ylamino)-5-(quinolin-2-yl)pyrimidin-4(3H)-one]
7.70	O=c1[nH]c(N2CCC(O)C2)nc(N[C@@H]2CCCNC2)c1-c1ccc2ccccc2n1 (stereo partly drawn) [Example 167, 2-(3-hydroxypyrrolidin-1-yl)-6-((R)-piperidin-3-ylamino)-5-(quinolin-2-yl)pyrimidin-4(3H)-one]

Same assay, conditions: unit inferred; 100 μM ATP; read-out: IRAK4 IC50

pIC50	Compound
7.58	O=c1[nH]c(N2CCc3cnccc3C2)nc(N[C@@H]2C[C@H](CO)[C@@H](O)[C@H]2O)c1-c1nc2ccccc2s1 [Example 74, 5-(benzo[d]thiazol-2-yl)-2-(3,4-dihydro-2,6-naphthyridin-2(1H)-yl)-6-((1R,2S,3R,4R)-2,3-dihydroxy-4-(hydroxymethyl)cyclopentylamino)pyrimidin-4(3H)-one]
